Results: paper PMC6032158, “Structure–Activity Relationship of Piplartine and Synthetic Analogues against Schistosoma mansoni and Cytotoxicity to Mammalian Cells” (International Journal of Molecular Sciences, 2018)
Entries after “also recorded” stand apart in the source; their conditions may differ.

Key:
[1] = test system: murine fibroblast (NIH-3T3) cells; assay: MTT cytotoxicity assay in murine fibroblasts; format: cell-based; parameters: Emax: dose or concentration left out as unconfirmed
In short: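 NIH-3T3 cells exposed 24 h to samples at 25–800 µg/mL in 3% DMSO, with 3% DMSO as control. MTT (5 mg/mL stock) added for 2 h, formazan dissolved in DMSO, absorbance read at 595 nm.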

[2] = test system: J774A.1 cells; assay: Cell death mechanism, annexin-V FITC / propidium iodide staining by flow cytometry; format: cell-based, mouse; conditions: J774A.1, 24 h; piplartine 25 μg/mL, 14B 400 μg/mL
Method: Cells were then treated with 2 µL of annexin-V FITC (Apoptosis Detection Kit; BD Biosciences, Franklin Lakes, NJ, USA) and 2 µL of propidium iodide (PI, 50 µg/mL) for 15 min in the dark at room temperature. Next, 100 µL binding buffer was added and samples were analysed by flow cytometry (BD LSFortessa^TM, Franklin Lakes, NJ, USA). A total of 20,000 events were collected per sample.

[3] = test system: 49-day-old S. mansoni adult worms; assay: In vitro experiments with adult worms of S. mansoni (mortality, motor activity); format: cell-based, Schistosoma mansoni; conditions: for Dead Worms (%) F / Motor Activity Reduction (%) Significant F / Motor Activity Reduction (%) Slight F: female worms; for Dead Worms (%) M / Motor Activity Reduction (%) Significant M / Motor Activity Reduction (%) Slight M: male worms
In short: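 BH-strain worm pairs recovered from hamsters 49 days post-infection, washed in RPMI 1640 with penicillin, streptomycin and amphotericin B, and cultured as mated pairs with or without drug for 96 h. Motor activity changes and death were scored by microscopy.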

[4] = test system: S. mansoni schistosomula and adult worms; parameters: method as in PMID 20832410, PMID 22796749; conditions: cited from earlier work
[5] = test system: mouse BALB/cN macrophage (J774A.1) cell line; assay: Cell viability by flow cytometry in macrophages; conditions: 24 h, 25, 100 and 400 µg/mL, vs DMEM control

Compound: COc1cc(/C=C/C(=O)N2CCC=CC2=O)cc(OC)c1OC [Piplartine, 3,4,5-trimethoxycinnamoyl-N-dihydropyridin-2-one]
- effect on NIH-3T3 cell viability (in words) ([1]; MTT, 24 h exposure, 25 to 800 µg/mL): decreased cell viability after 24 h of exposure, exhibiting considerable toxicity; also recorded: showed toxicity at all concentrations tested
- Emax ([1]; Mus musculus, NIH3T3, 24 h): 96.94 ± 0.12%
- annexin-V FITC staining (apoptosis marker) vs DMEM negative control (in words) [2]: significant (p < 0.05) increase in annexin-V FITC staining
- Dead Worms (%) F ([3]; 5 µM, 24 h): 0%
- Motor Activity Reduction (%) Significant F ([3]; 5 µM, 24 h): 0%
- Motor Activity Reduction (%) Slight F ([3]; 5 µM, 24 h): 100%
- Dead Worms (%) M ([3]; 5 µM, 24 h): 0%
- Motor Activity Reduction (%) Significant M ([3]; 5 µM, 24 h): 0%
- Motor Activity Reduction (%) Slight M ([3]; 5 µM, 24 h): 100%
- Dead Worms (%) F ([3]; 5 µM, 48 h): 0%
- Motor Activity Reduction (%) Significant F ([3]; 5 µM, 48 h): 0%
- Motor Activity Reduction (%) Slight F ([3]; 5 µM, 48 h): 100%
- Dead Worms (%) M ([3]; 5 µM, 48 h): 0%
- Motor Activity Reduction (%) Significant M ([3]; 5 µM, 48 h): 0%
- Motor Activity Reduction (%) Slight M ([3]; 5 µM, 48 h): 100%
- Dead Worms (%) F ([3]; 5 µM, 72 h): 0%
- Motor Activity Reduction (%) Significant F ([3]; 5 µM, 72 h): 0%
- Motor Activity Reduction (%) Slight F ([3]; 5 µM, 72 h): 100%
- Dead Worms (%) M ([3]; 5 µM, 72 h): 0%
- Motor Activity Reduction (%) Significant M ([3]; 5 µM, 72 h): 0%
- Motor Activity Reduction (%) Slight M ([3]; 5 µM, 72 h): 100%
- Dead Worms (%) F ([3]; 5 µM, 96 h): 60%
- Motor Activity Reduction (%) Significant F ([3]; 5 µM, 96 h): 60%
- Motor Activity Reduction (%) Slight F ([3]; 5 µM, 96 h): 0%
- Dead Worms (%) M ([3]; 5 µM, 96 h): 60%
- Motor Activity Reduction (%) Significant M ([3]; 5 µM, 96 h): 60%
- Motor Activity Reduction (%) Slight M ([3]; 5 µM, 96 h): 0%
- Dead Worms (%) F ([3]; 10 µM, 24 h): 100%
- Motor Activity Reduction (%) Significant F ([3]; 10 µM, 24 h): 100%
- Motor Activity Reduction (%) Slight F ([3]; 10 µM, 24 h): 0%
- Dead Worms (%) M ([3]; 10 µM, 24 h): 100%
- Motor Activity Reduction (%) Significant M ([3]; 10 µM, 24 h): 100%
- Motor Activity Reduction (%) Slight M ([3]; 10 µM, 24 h): 0%
- Dead Worms (%) F ([3]; 10 µM, 48 h): 100%
- Motor Activity Reduction (%) Significant F ([3]; 10 µM, 48 h): 100%
- Motor Activity Reduction (%) Slight F ([3]; 10 µM, 48 h): 0%
- Dead Worms (%) M ([3]; 10 µM, 48 h): 100%
- Motor Activity Reduction (%) Significant M ([3]; 10 µM, 48 h): 100%
- Motor Activity Reduction (%) Slight M ([3]; 10 µM, 48 h): 0%
- Dead Worms (%) F ([3]; 10 µM, 72 h): 100%
- Motor Activity Reduction (%) Significant F ([3]; 10 µM, 72 h): 100%
- Motor Activity Reduction (%) Slight F ([3]; 10 µM, 72 h): 0%
- Dead Worms (%) M ([3]; 10 µM, 72 h): 100%
- Motor Activity Reduction (%) Significant M ([3]; 10 µM, 72 h): 100%
- Motor Activity Reduction (%) Slight M ([3]; 10 µM, 72 h): 0%
- Dead Worms (%) F ([3]; 10 µM, 96 h): 100%
- Motor Activity Reduction (%) Significant F ([3]; 10 µM, 96 h): 100%
- Motor Activity Reduction (%) Slight F ([3]; 10 µM, 96 h): 0%
- Dead Worms (%) M ([3]; 10 µM, 96 h): 100%
- Motor Activity Reduction (%) Significant M ([3]; 10 µM, 96 h): 100%
- Motor Activity Reduction (%) Slight M ([3]; 10 µM, 96 h): 0%
- concentrations active against S. mansoni ([3]; adult worms): 5 to 10 µM
- activity against S. mansoni adult worms (in words) ([3]; analogues 50, 25, 10 and 5 μM, piplartine 5 and 10 μM, up to 96 h): showed activity against the parasite 24 h after incubation
- concentration with in vitro schistosomicidal activity [4]: 10 µM
- effect on J774A.1 cell viability (in words) [5]: significantly (p < 0.05) affected cell viability at concentrations of 25 and 100 µg/mL
- effect on J774A.1 cell viability (in words) ([5]; listed as piplartine): more toxic to mammalian cells than the analogues
